The target of this test is T1, kinase domain protein of RC kinase (Homo sapiens, UniProt Q56UN5).
T1 sequence (Q56UN5 1061-1324 limits assumed): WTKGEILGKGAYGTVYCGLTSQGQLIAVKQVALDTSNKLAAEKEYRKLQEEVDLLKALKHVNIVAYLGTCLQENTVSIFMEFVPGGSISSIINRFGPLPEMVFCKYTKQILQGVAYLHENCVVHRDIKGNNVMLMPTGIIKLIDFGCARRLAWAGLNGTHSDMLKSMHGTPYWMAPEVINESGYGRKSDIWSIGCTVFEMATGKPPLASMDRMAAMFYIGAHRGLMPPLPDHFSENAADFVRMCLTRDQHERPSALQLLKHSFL
Put plainly: Enzymatic assay for kinase inhibitory activity (Crebtide substrate, LANCE readout), kinase domain protein. The class given is biochemical. The conditions noted are these: test compound 1 μM, ATP 1 μM, Crebtide 50 nM. The procedure:
Solutions of a test compound, Crebtide (a substrate), a kinase, and ATP were prepared using 1×MAPK Buffer (50 mM HEPES, 1 mM EGTA, […], 10 mM MgCl2, 2 mM DTT, and 0.01% Tween 20).
To each well, the test compound (1 μL) was first added (in duplicate) to reach a final concentration of 1 μM or 1×IC50 of the compound. The kinase (5 μL) was then added to each well to reach a final concentration of […] for the kinase domain or […] for the full-length domain. Each plate included a positive and negative controls in duplicate wells. Crebtide (2.5 μL) was then added to each well in duplicate to reach a final concentration of 50 nM. If the full-length kinase was used, the plates were incubated for 45 min at room temperature before proceeding further. ATP (2.5 μL) was added to each well to reach a final concentration of 1 μM for the kinase domain and 3 μM for the full-length.
After the addition of ATP, the plates were incubated for 45 min at room temperature. During the incubation, an EDTA solution (40 mM) and anti-Crebtide ([…]) were prepared. Additionally, a detection buffer stock solution was diluted ten fold before use.
After the incubation, the anti-Crebtide (5 μL) and EDTA (5 μL) were added to each well to reach their final concentrations of […] and 10 mM, respectively. The plates were allowed to develop at room temperature for 45 min. The plates were then read at 665 nm and 615 nm using Perkin Elmer Lance machine.
The biological results of inhibition of the kinase domain protein of RC kinase are summarized in Tables 2 and 3, wherein A represents at least 50% inhibition of the RC kinase activity at 1 μM; B represents no greater than 50% but at least 20% inhibition of the RC kinase activity at 1 μM; C represents no greater than 20% but at least 5% inhibition of the RC kinase activity at 1 μM; and D represents no greater than 5% inhibition of the RC kinase activity at 1 μM.

SMILES strings stand for the structures.

This note sets out measurements from patent publication US8916555B2, “3,5-diaminopyrazole kinase inhibitors” (Axikin Pharmaceuticals, Inc., priority 2012, dated 2014).

In turn, `N#Cc1c(Nc2cccc(Cl)c2)n[nH]c1NCc1ccc(Oc2nccc(C(F)(F)F)n2)cc1` [Compound C1, 3-((3-chlorophenyl)amino)-5-((4-((4-(trifluoromethyl)pyrimidin-2-yl)oxy)benzyl)amino)-1H-pyrazole-4-carbonitrile] returned an inhibition at 1 µM of 5 to 20%.

In the case of `N#Cc1c(Nc2cccc(Cl)c2)n[nH]c1NCc1cccn1S(=O)(=O)c1ccccc1` [Compound C4], the inhibition at 1 µM was 5 to 20%.

In turn, `N#Cc1c(Nc2cccc(Cl)c2)n[nH]c1NCc1ccc(S(F)(F)(F)(F)F)cc1` [Compound C5, 3-((3-chlorophenyl)amino)-5-((4-pentafluorothiobenzyl)amino)-1H-pyrazole-4-carbonitrile] gave an inhibition at 1 µM of 5 to 20%.

For `N#Cc1c(Nc2cccc(Cl)c2)n[nH]c1NCc1ccc(OCc2ccc(F)cc2)cc1` [Compound C6], the inhibition at 1 µM was 20 to 50%.

`N#Cc1c(Nc2cccc(Cl)c2)n[nH]c1NCc1ccc(-n2cnc3ccccc32)cc1` [Compound C7]: the inhibition at 1 µM was 5 to 20%.

On to `N#Cc1c(Nc2cccc(Cl)c2)n[nH]c1NCc1c[nH]c2c(F)c(F)c(F)c(F)c12` [Compound C8], for which the inhibition at 1 µM lay in the range of 5 to 20%.

`Cn1nc(C(F)(F)F)c(CNc2[nH]nc(Nc3cccc(Cl)c3)c2C#N)c1Cl` [Compound C9] had an inhibition at 1 µM of at most 5%.

Turning to `N#Cc1c(Nc2cccc(Cl)c2)n[nH]c1NCc1ccc(OC(F)(F)F)c(F)c1` [Compound C10], the inhibition at 1 µM was at most 5%.

`N#Cc1c(Nc2cccc(Cl)c2)n[nH]c1NCc1nc(-c2ccccc2)[nH]c1Cl` [Compound C11]: the inhibition at 1 µM was at most 5%.

On to `N#Cc1c(Nc2cccc(Cl)c2)n[nH]c1NCc1ccc(-c2ccc(Cl)cc2)o1` [Compound C12], for which the inhibition at 1 µM is at most 5%.

`CN1CCN(c2ccc(CNc3[nH]nc(Nc4cccc(Cl)c4)c3C#N)cc2)CC1` [Compound C13] yielded an inhibition at 1 µM of at most 5%.

As for `COc1ccc(C(F)(F)F)cc1CNc1[nH]nc(Nc2cccc(Cl)c2)c1C#N` [Compound C14], the inhibition at 1 µM was at most 5%.

`N#Cc1c(Nc2cccc(Cl)c2)n[nH]c1NCc1ccc(N2CCOCC2)nc1` [Compound C15] showed an inhibition at 1 µM of at most 5%.

`N#Cc1c(Nc2cccc(Cl)c2)n[nH]c1NCc1ccc(-c2ccccn2)s1` [Compound C16]: the inhibition at 1 µM is at most 5%.

`N#Cc1c(Nc2cccc(Cl)c2)n[nH]c1NCc1ccc(OC(F)F)c(O)c1` [Compound C17, 3-((3-chlorophenyl)amino)-5-((4-(difluoromethoxy)-3-hydroxybenzyl)amino)-1H-pyrazole-4-carbonitrile] returned an inhibition at 1 µM of at most 5%.

On to `N#Cc1c(Nc2cccc(Cl)c2)n[nH]c1NCc1ccc(-n2cncn2)cc1` [Compound C20], for which the inhibition at 1 µM was in the range of 5 to 20%.

For the molecule `N#Cc1c(Nc2cccc(Cl)c2)n[nH]c1NCc1ccc(OCCO)cc1` [Compound C21, 3-((3-chlorophenyl)amino)-5-((4-(2-hydroxyethoxy)benzyl)amino)-1H-pyrazole-4-carbonitrile], the inhibition at 1 µM was in the range of 5 to 20%.

The molecule `COc1ccc(CNc2[nH]nc(Nc3cccc(Cl)c3)c2C#N)c(C)c1C` [Compound C22] registered an inhibition at 1 µM of at most 5%.

`N#Cc1c(Nc2cccc(Cl)c2)n[nH]c1NCc1c(O)cccc1Cl` [Compound C25] had an inhibition at 1 µM of 20 to 50%.

`N#Cc1c(Nc2cccc(Cl)c2)n[nH]c1NCc1cccnc1Cl` [Compound C28, 3-((3-chlorophenyl)amino)-5-(((2-chloropyridin-3-yl)methyl)amino)-1H-pyrazole-4-carbonitrile] gave an inhibition at 1 µM of at most 5%.

On to `Cc1cc(F)ccc1CNc1[nH]nc(Nc2cccc(Cl)c2)c1C#N` [Compound C29, 3-((3-chlorophenyl)amino)-5-((4-fluoro-2-methylbenzyl)amino)-1H-pyrazole-4-carbonitrile], for which the inhibition at 1 µM was 5 to 20%.

With `Cc1ccc(CNc2[nH]nc(Nc3cccc(Cl)c3)c2C#N)c(O)c1` [Compound C30], the inhibition at 1 µM lay in the range of 5 to 20%.

Consider `NC(=O)c1c(Nc2cccc(Cl)c2)n[nH]c1NCc1ccc(Cl)nc1` [Compound D6], for which the inhibition at 1 µM is 5 to 20%.
